Assay results as given in US20240245691A1 (Sitryx Therapeutics Limited, priority 2021, published 2024).
Where two headings read alike, the source gives them in different places.

Experiments:
[1] = tested on: IL-1β; test: THP-1 AlphaLISA IL-1β cytokine assay (differentiated THP-1 cells); format: cell-based; details: Homo sapiens, THP-1, differentiated THP-1 cells
Description: (§1) Measuring Inhibitory Effects on IL-1V Cytokine and IL-6 Output from THP-1s
(§2) The cytokine inhibition profiles of compounds of formula (I) were determined in a differentiated THP-1 cell assay. All assays were performed in RPMI-1640 growth medium (Gibco), supplemented with 10% fetal bovine serum (FBS; Gibco), 1% penicillin-streptomycin and 1% sodium pyruvate unless specified otherwise. The IL-1β and IL-6 cytokine inhibition assays were run in a background of differentiated THP-1 cells as described below. All reagents described were from Sigma-Aldrich unless specified otherwise. Compounds were prepared as 10 mM DMSO stocks.
(§3) THP-1 cells were expanded as a suspension up to 80% confluence in appropriate growth medium. Cells were harvested, suspended, and treated with an appropriate concentration of phorbol 12-myristate 13-acetate (PMA) over a 72 hr period (37° C./5% CO2).
(§4) Following 72 hrs of THP-1 cell incubation, cellular medium was removed and replaced with fresh growth media containing 1% of FBS. Working concentrations of compounds were prepared separately in 10% FBS treated growth medium and pre-incubated with the cells for 30 minutes (37° C./5% CO2). Following the 30 minute compound pre-incubation, THP-1s were treated with an appropriate concentration of LPS and the THP-1s were subsequently incubated for a 24 hr period (37° C./5% CO2). An appropriate final concentration of Nigericin was then dispensed into the THP-1 plates and incubated for 1 hour (37° C./5% CO2) before THP-1 supernatants were harvested and collected in separate polypropylene 96-well holding plates.
(§5) Reagents from each of the IL-1β and IL-6 commercial kits (Perkin Elmer) were prepared and run according to the manufacturer's instructions. Subsequently, fluorescence signal detection in a microplate reader was measured (EnVision® Multilabel Reader, Perkin Elmer).
(§6) Percentage inhibition was calculated per cytokine by normalising the sample data to the high and low controls used within each plate (+/−LPS respectively).
(§7) Dimethyl itaconate and 4-octyl itaconate were included as comparator compounds.

[2] = Hepatocyte stability assay, mouse; format: in vitro ADME; details: mouse, hepatocytes, T½
Text: (§8) Defrosted cryo-preserved hepatocytes (viability>70%) were used to determine the metabolic stability of a compound via calculation of intrinsic clearance (CIint; a measure of the removal of a compound from the liver in the absence of blood flow and cell binding). Clearance data are particularly important for in vitro work as they can be used in combination with in vivo data to predict the half-life and oral bioavailability of a drug.
(§9) The metabolic stability in hepatocytes assay involved a time-dependent reaction using both positive and negative controls. The cells must be pre-incubated at 37° C. then spiked with test compound (and positive control); samples taken at pre-determined time intervals were analysed to monitor the change in concentration of the initial drug compound over 60 minutes. A buffer incubation reaction (with no hepatocytes present) acted as a negative control and two cocktail solutions, containing compounds with known high and low clearance values (verapamil/7-hydroxycoumarin and propranolol/diltiazem), acted as positive controls. • 1. The assay was run with a cell concentration of 0.5×10^6 cells/mL in Leibovitz buffer. • 2. All compounds and controls were run in duplicate. • 3. Compound concentration was 10 μM. • 4. All compounds and controls were incubated with both cells and buffer to show turnover is due to hepatic metabolism. • 5. All wells on the incubation plate had 326.7 μL of either cells or buffer added. • 6. Prior to assay, cell and buffer-only incubation plates were preincubated for 10 mins at 37° C. • 7. The assay was initiated by adding compounds, 3.3 μL of 1 mM in 10% DMSO-90% Buffer; final DMSO concentration is 0.1%. • 8. Samples were taken at regular timepoints (0, 5, 10, 20, 40, 60 min) until 60 mins. • 9. Sample volume was 40 μL and added to 160 μL of crash solvent (acetonitrile with internal standard) and stored on ice. • 10. At the end of the assay, the crash plates were centrifuged at 3500 rpm for 20 mins at 4° C. • 11. 80 μL of clear supernatant was removed and mixed with 80 μL of deionised water before being analysed by LC-MS/MS.
(§10) Raw LC-MS/MS data were exported to, and analysed in, Microsoft Excel for determination of intrinsic clearance. The percentage remaining of a compound was monitored using the peak area of the initial concentration as 100%. Intrinsic clearance and half-life values were calculated using a graph of the natural log of percentage remaining versus the time of reaction in minutes.
(§11) 4-Octyl itaconate was included as a comparator compound.

[3] = tested on: cryo-preserved hepatocytes; test: Hepatocyte stability assay, mouse; format: in vitro ADME; details: mouse, hepatocytes
Text: as §8, §9, §10, §11

[4] = Hepatocyte stability assay, human; format: in vitro ADME; details: human, hepatocytes, T½
Text: as §8, §9, §10, §11

[5] = tested on: cryo-preserved hepatocytes; test: Hepatocyte stability assay, human; format: in vitro ADME; details: human, hepatocytes
Text: as §8, §9, §10, §11

[6] = tested on: IL-6; test: THP-1 AlphaLISA IL-6 cytokine assay (differentiated THP-1 cells); format: cell-based; details: LPS 24 hr then Nigericin 1 hour, read-out: IL-6 (IC50)
Description: as §1, §2, §3, §4, §5, §6, §7

[7] = tested on: NRF2 (nuclear factor erythroid 2-related factor 2); test: NRF2 +/-GSH activation assay (DiscoverX PathHunter NRF2 translocation kit, U2OS cells); format: cell-based; details: Homo sapiens; for Emax: U2OS, normalised to dimethyl fumarate high control; for EC50: U2OS PathHunter cells, 6 hours
[8] = LPS 24 hr then Nigericin 1 hour, read-out: IL-1β (IC50)
[9] = +GSH, read-out: NRF2 activation Emax, +GSH
[10] = −GSH, read-out: NRF2 activation Emax, −GSH
[11] = +GSH, read-out: NRF2 activation EC50, +GSH
[12] = −GSH, read-out: NRF2 activation EC50, −GSH
[13] = Homo sapiens, THP-1, differentiated THP-1 cells

| Structure (SMILES) | IC50 [1, 8] [µM] | half-life at 10 μM [2] [h] | Clint [3] [μL min^−1 10^−6 cells] | half-life at 10 μM [4] [h] | Clint [5] [μL min^−1 10^−6 cells] | IC50 ([6]; differentiated THP-1 cells) [µM] | half-life at 10 μM ([2]; data from repeated experiments) [h] | Clint, data from repeated experiments [3] | EC50 [7, 11] [µM] | EC50 [7, 12] [µM] | half-life at 10 μM ([4]; data from repeated experiments) [h] | Clint, data from repeated experiments [5] | IC50 [6, 13] [µM] | IC50 ([1]; footnote a: data from repeated experiments, read-out: IL-1β (IC50), data from repeated experiments) [µM] | Emax [7, 9] [%] | Emax [7, 10] [%] |
| --- | --- | --- | --- | --- | --- | --- | --- | --- | --- | --- | --- | --- | --- | --- | --- | --- |
| C=C(CC(=O)NC1CCCCCCC1)C(=O)OC1CCN(S(C)(=O)=O)CC1 [Example 2, 1-(methylsulfonyl)piperidin-4-yl 4-(cyclooctylamino)-2-methylene-4-oxobutanoate] | 8.5 | 0.983 | 119 | 2 | 14 | – | 0.15 | 156ª μL min^−1 10^−6 cells | 41.9 | 24.9 | 1.28 | 21ª μL min^−1 10^−6 cells | – | – | 90 | 127 |
| C=C(CC(=O)NC(c1ccc(C(F)(F)F)cc1)C(F)(F)F)C(=O)O (stereo not shown) [Example 7, 2-methylene-4-oxo-4-((2,2,2-trifluoro-1-(4-(trifluoromethyl)phenyl)ethyl)amino)butanoic acid] | 8.2 | 1.25 | 21 | > 7.67 | <3 | – | – | – | – | – | – | – | > 100 | – | – | – |
| C=C(CC(=O)NC1(c2ccc(C(F)(F)F)cc2)CCCC1)C(=O)O [Example 14, 2-methylene-4-oxo-4-((1-(4-(trifluoromethyl)phenyl)cyclopentyl)amino) butanoic acid] | 58.3 | 6.48 | 4 | > 7.67 | <3 | – | – | – | – | – | – | – | > 100 | – | – | – |
| C=C(CC(=O)N[C@@H](C)c1ccc(Br)cc1)C(=O)O [Example 16, (S)-4-((1-(4-bromophenyl)ethyl)amino)-2-methylene-4-oxobutanoic acid] | 3.8 | 4.1 | 7 | 4.68 | 6 | – | – | – | – | – | – | – | > 56.2 | 4.9 | – | – |
| C=C(CC(=O)N[C@@H](C)c1ccc(SC(F)(F)F)cc1)C(=O)O [Example 17] | 13.9 | 1.58 | 16 | 3.72 | 8 | – | – | – | – | – | – | – | > 31.6 | – | – | – |
| C=C(CC(=O)N[C@@H](C)c1ccc(C(F)(F)F)c(F)c1)C(=O)O [Example 19, (S)-4-((1-(3-fluoro-4-(trifluoromethyl)phenyl)ethyl)amino)-2-methylene-4-oxobutanoic acid] | 8.8 | 6.7 | 4 | 7.28 | 4 | – | – | – | – | – | – | – | > 31.6 | – | – | – |
| C[C@H](NC(=O)C/C(=C\CCc1ccccc1)C(=O)O)c1ccc(C(F)(F)F)cc1 [Example 46, (S,E)-2-(2-oxo-2-((1-(4-(trifluoromethyl)phenyl)ethyl)amino)ethyl)-5-phenylpent-2-enoic acid] | 2.5 | 0.667 | 37 | 3.35 | 7 | – | – | – | – | – | – | – | – | – | – | – |

The next lines start with results.

| IC50 [1, 8] [µM] | half-life at 10 μM [2] [h] | Clint [3] [μL min^−1 10^−6 cells] | half-life at 10 μM [4] [h] | Clint [5] [μL min^−1 10^−6 cells] | IC50 ([6]; differentiated THP-1 cells) [µM] | half-life at 10 μM ([2]; data from repeated experiments) [h] | Clint, data from repeated experiments [3] | EC50 [7, 11] [µM] | EC50 [7, 12] [µM] | half-life at 10 μM ([4]; data from repeated experiments) [h] | Clint, data from repeated experiments [5] | IC50 [6, 13] [µM] | IC50 ([1]; footnote a: data from repeated experiments, read-out: IL-1β (IC50), data from repeated experiments) [µM] | Structure (SMILES) | Emax [7, 9] [%] | Emax [7, 10] [%] |
| --- | --- | --- | --- | --- | --- | --- | --- | --- | --- | --- | --- | --- | --- | --- | --- | --- |
| 31 | 6.67 | 4 | > 7.67 | <3 | > 100 | – | – | – | – | – | – | – | – | C=C(C(=O)O)C(C)C(=O)N[C@@H](C)c1ccc(C(F)(F)F)cc1 (single isomer, unassigned; isomer 1) [Example 54] | – | – |
| 12.3 | 1.63 | 31 | 1.95 | 12 | – | 0.183 | 133 μL min^−1 10^−6 cells | > 100 | 22.3 | 0.783 | 31ª μL min^−1 10^−6 cells | – | – | C=C(CC(=O)NCc1ccc(Cl)cc1)C(=O)OC1CCN(S(C)(=O)=O)CC1 [Example 1, 1-(methylsulfonyl)piperidin-4-yl 4-((4-chlorobenzyl)amino)-2-methylene-4-oxobutanoate] | 19 | 63 |
| 16.6 | > 7.67 | <3 | > 7.67 | <3 | – | – | – | – | – | – | – | > 100 | – | C=C(CC(=O)NC(c1ccc(C(F)(F)F)cc1)C1CC1)C(=O)O (stereo not shown) [Example 10, 4-((cyclopropyl(4-(trifluoromethyl)phenyl)methyl)amino)-2-methylene-4-oxobutanoic acid] | – | – |
| 8.3 | > 7.67 | <3 | > 7.67 | <3 | – | – | – | – | – | – | – | > 100 | – | C=C(CC(=O)NC1(c2ccc(C(F)(F)F)cc2)CC1)C(=O)O [Example 11, 2-methylene-4-oxo-4-((1-(4-(trifluoromethyl)phenyl)cyclopropyl)amino)butanoic acid] | – | – |
| 19.5 | > 7.67 | <3 | 7.17 | 3 | – | – | – | – | – | – | – | > 31.6 | – | C=C(CC(=O)NC1(c2ccc(C(F)(F)F)cc2)COC1)C(=O)O [Example 13, 2-methylene-4-oxo-4-((3-(4-(trifluoromethyl)phenyl)oxetan-3-yl)amino)butanoic acid] | – | – |
| 8.9 | 0.333 | 87 | 2.05 | 12 | – | – | – | > 100 | 46.2 | – | – | – | – | C=C(CC(=O)N[C@@H](C)c1ccc(C(F)(F)F)cn1)C(=O)OC1CCN(C)CC1 [Example 32, 1-methylpiperidin-4-yl (S)-2-methylene-4-oxo-4-((1-(5-(trifluoromethyl)pyridin-2-yl)ethyl)amino)butanoate] | 12 | 58 |
| 4.2 | 3.98 | 6 | > 7.67 | <3 | – | – | – | – | – | – | – | – | – | CC(C)/C=C(\CC(=O)N[C@@H](C)c1ccc(C(F)(F)F)cc1)C(=O)O [Example 44, (S,E)-4-methyl-2-(2-oxo-2-((1-(4-(trifluoromethyl)phenyl)ethyl)amino)ethyl)pent-2-enoic acid] | – | – |
